From patent publication US20230212202A1, “TREATMENT OF MGMT DEFICIENT CANCER WITH 2-FLUOROETHYL-SUBSTITUTED NITROSOUREAS AND OTHER COMPOUNDS” (YALE UNIVERSITY, priority 2021, published 2023)

What was measured:
[1] = test system: PEO4 (BRCA2+) and PEO1 (BRCA2-/-) cells; test: Short-term viability assay with or without O6BG; format: cell-based, human
[2] = test system: LN229 MGMT-/MMR- flank tumors; test: Xenograft flank tumor model; format: in vivo, mouse
LN229 MGMT-/MMR- cells = test: Short-term cell viability assay; format: cell-based, human; details: Homo sapiens, LN-229
[3] = test system: LN229 MGMT-/MMR+ and MGMT-/MMR- flank tumors; test: Flank tumor second study: regimens, schedules and routes; format: in vivo, mouse; details: 5, 15, 25 mg/kg; MWF × 3 weeks, M-F × 1 week; PO, IP
Description: In a second study, mice were randomized and administered either KL-50 (4a) or vehicle (10% cyclodextrin) by oral gavage or intraperitoneal injection on either M-F × 1 or MWF × 3 cycles at 5, 15, or 25 mgs/kg. Caliper measurements were obtained during the dosing period and at least two weeks following treatment. Mice were euthanized if body weight loss exceeded 20% or if tumor volume increased to greater than 2000 mm^3.

[4] = test system: WT and XPA-deficient MEFs; test: Short-term cell viability assay in NER isogenic MEFs; format: cell-based, mouse; details: ±MGMT depletion with O6BG
Description: Short-term Cell Viability Assay.

[5] = test system: DLD1 BRCA2+/- and BRCA2-/- cells; test: Short-term viability assay with or without O6BG; format: cell-based, human
LN229 MGMT-/MMR+ cells [6] = test: Genomic DNA denaturing gel electrophoresis; format: cell-based, human
Protocol: Genomic DNA Denaturing Gel Electrophoresis. Assay was adapted from N. Bossuet-Greif et al., The Colibactin Genotoxin Generates DNA Interstrand Cross-Links in Infected Cells. mBio 9, (2018). Cells were trypsinized, washed with 1X PBS, and stored at -80° C. prior to processing. Genomic DNA was extracted with the DNeasy Blood & Tissue Kit (Qiagen) per kit protocol. A 0.7% agarose gel was prepared in 100 mM NaCl-2mM EDTA (pH 8) and soaked in 40 mM NaOH-1 mM EDTA running buffer for 2 h. Genomic DNA (400 ng/well) was then loaded in 1X BlueJuice loading buffer (Invitrogen) and subjected to electrophoresis at 2 V/cm for 30 min, followed by 3 V/cm for 2 h. The gel was neutralized in 150 mM NaCl-100 mM Tris (pH 7.4) for 30 min, twice, and then stained with 1X SYBR Gold in 150 mM NaCl-100 mM Tris (pH 7.4) for 90 min. Imaging was performed on a ChemiDoc XRS+ Molecular Imager (Bio-Rad).

[7] = test system: LN229 MGMT+/-, MMR+/- cells; test: Clonogenic survival assay; format: cell-based, human
Protocol: Clonogenic Cell Survival Assay. Cells were trypsinized, washed, counted, and diluted in a medium containing various concentrations of drug. They were then immediately seeded in six-well plates in triplicate at three-fold dilutions, ranging from 9000 to 37 cells per well. Depending on colony size, these plates were kept in the incubator for 10 to 14 days. After incubation, colonies were washed in phosphate-buffered saline (PBS), stained with crystal violet, counted, and quantified.

[8] = test system: LN229 MGMT-/MMR+ flank tumors
[9] = test system: FANCD2 ubiquitination in LN229 MGMT+/-, MMR+/- cells; test: Western blot analysis of FANCD2 ubiquitination; format: cell-based, human
Protocol: Western Blotting. For phospho-protein analysis experiments, cells were lysed in 1X RIPA buffer (Cell Signaling Technology, #9806) supplemented with 1X Protease Inhibitor Cocktail (Roche) and 1X PhosSTOP Phosphatase Inhibitor Cocktail (Sigma). For all other western blot analyses, cells were lysed in lysis buffer (50 mM HEPES, 250 mM NaCl, 5 mM EDTA, 1% NP-40) supplemented with 1X Protease Inhibitor Cocktail (Roche). The de-ubiquitination inhibitor N-ethylmaleimide (NEM, 4 mM) was added in FANCD2 ubiquitination analysis experiments. Proteins were separated using NuPAGE 4-12% Bis-Tris or 3-8% Tris-Acetate Gels (Invitrogen) and transferred to Immobilon-P PVDF membrane (Millipore) for western blotting. Membranes were blocked with 5% milk in TBS-T for 1 h prior to primary antibody addition overnight at 4° C. […] Where shown, bands were quantified using ImageJ software.

LN229 MGMT-/MMR+ cells [10] = test: IR alkaline comet assay; format: cell-based, human

Protocol for BJ fibroblast cells: Short-term Cell Viability Assay. Cells were seeded in 96-well plates at 1000 or 2000 cells/well and allowed to adhere at 23° C. for 60 min and then incubated overnight at 37° C. […] Cells were imaged on a Cytation 3 imaging reader (BioTek) and quantified using CellProfiler software.

NC(=O)c1ncn2c(=O)n(CCF)nnc12 [KL-50]
sensitivity of BRCA2-/- cells [1]: BRCA2 loss enhanced the toxicity | therapeutic index (TI) ([1]; PEO1/4 model): 62 fold | tumor growth ([2]; 5 mg/kg MWF × 3 weeks, P.O.): potently suppressed tumor growth | increase in median OS vs TMZ ([2]; Kaplan-Meier): greater than 5 week | median OS ([2]; Kaplan-Meier, 5 mg/kg MWF × 3 weeks): greater than 15 weeks | IC50 (LN229 MGMT-/MMR- cells): ~20 µM | efficacy and toxicity across regimens [3]: effective and non-toxic | sensitivity of XPA deficient cells [4]: absence of additional sensitivity | sensitivity of BRCA2-/- cells [5]: BRCA2 loss enhanced the toxicity | therapeutic index (TI), ratio of IC50 values in MGMT+/BRCA2+ cells compared to MGMT-/BRCA2- cells ([5]; DLD1 isogenic model): ~ 600 fold | crosslinked genomic DNA (LN229 MGMT-/MMR+ cells [6]): presence of crosslinked DNA | cytotoxicity in normal human fibroblast cells (BJ fibroblast cells): no increase in toxicity | clonogenic survival, MGMT+ cells ([7]; LN229 MGMT+ cells): minimal toxicity to MGMT+ cells at doses up to at least 200 µM | clonogenic survival, MGMT- cells ([7]; LN229 MGMT- cells, MMR+/-): robust antitumor activity in MGMT- cells, independent of MMR status | tumor growth ([8]; 5 mg/kg MWF × 3 weeks, P.O.): statistically non-inferior to TMZ (1a) | body weight ([8]; LN229 flank tumor experiments, compared to TMZ or control): no significant changes in body weight | FANCD2 ubiquitination [9]: observed specifically in MGMT- cells | IR-induced comet tail (ICL detection) (LN229 MGMT-/MMR+ cells [10]; 200 µM, 24 h, 10 Gy): reduced the %DNA in the tail to levels similar to those seen for 0.1 µM MMC | comet tailing in the absence of IR (LN229 MGMT-/MMR+ cells [10]; TMZ, KL-50 200 µM, MMC 0.1 or 50 µM): induced tailing
